# Test results from ChEMBL document CHEMBL3244110, “Synthesis and biological evaluation of some 2-amino-4-aryl-3H-1,5-benzodiazepine analogues of clozapine” (J Med Chem, 1978).
# Active and inactive are the calls of the source. No cut-off for these calls is given here.
# Experiments:
# [1] = system: Rattus norvegicus; assay: Antipsychotic activity in 0.2 mA footshock-induced conditioned stimulus rat assessed as decrease in avoidance response at 20 mg/kg, ip after 30 mins; assay type: functional, organism-based; set-up: dose 20 mg/kg
# [2] = system: Mus musculus; assay: Toxicity in mouse assessed as ptosis at 30 mg/kg, ip; assay type: organism-based; set-up: dose 30 mg/kg, route intraperitoneal; settings: in vivo
# [3] = system: Mus musculus; assay: Antipsychotic activity in mouse assessed as increase in brain dopamine turnover at 25 to 30 mg/kg, ip pretreated with 200 mg/kg, ip alpha-methyl-p-tyrosine tyrosine hydroxylase inhibitor; assay type: functional, organism-based
# [4] = system: Mus musculus; assay: Antipsychotic activity in mouse assessed as protection against amphetamine-induced lethality at 5 mg/kg, ip treated 30 mins before amphetamine challenge; assay type: functional, organism-based; set-up: dose 5 mg/kg
# [5] = system: Mus musculus; assay: Antipsychotic activity in mouse assessed as protection against amphetamine-induced lethality at 50 mg/kg, ip treated 30 mins before amphetamine challenge; assay type: functional, organism-based; set-up: dose 50 mg/kg
# [6] = system: Rattus norvegicus; assay: Antipsychotic activity in 0.2 mA footshock-induced conditioned stimulus rat assessed as decrease in avoidance response at 5 mg/kg, ip after 30 mins; assay type: functional, organism-based; set-up: dose 5 mg/kg
structure (smiles),measurement,setting,value
Clc1ccc(C2CCN(C3=Nc4ccccc4N=C(c4ccccc4)C3)CC2)cc1,Activity,[1],inactive
same,Activity,[2],Toxic
same,Activity,[3],inactive
same,Activity,[4],Active
same,Activity,[5],inactive
same,Activity,[6],inactive
